Data: PubChem BioAssay AID743339 (Broad Institute, 2014)
Active and inactive are the calls of the source.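 Rule for the calls: active = activation curve crossing 200% at or below the highest valid dose tested for that sample; inconclusive = flat curve with activation between 30 and 70%, or poor fit; inactive = the rest, including signal falling instead of rising.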

Target: Leucyl-cystinyl aminopeptidase (Mus musculus) (UniProt Q8C129)
Test: IRAP activators, dose response, selectivity assay for ERAP1 modulator project, biochemical, Leu-AMC fluorescence, cherry-picked samples (AID 743339)
Conditions: purified IRAP, Leu-AMC cleavage fluorescence, 1 h

Chain of Leucyl-cystinyl aminopeptidase (Mus musculus) (Q8C129 whole entry, looked up): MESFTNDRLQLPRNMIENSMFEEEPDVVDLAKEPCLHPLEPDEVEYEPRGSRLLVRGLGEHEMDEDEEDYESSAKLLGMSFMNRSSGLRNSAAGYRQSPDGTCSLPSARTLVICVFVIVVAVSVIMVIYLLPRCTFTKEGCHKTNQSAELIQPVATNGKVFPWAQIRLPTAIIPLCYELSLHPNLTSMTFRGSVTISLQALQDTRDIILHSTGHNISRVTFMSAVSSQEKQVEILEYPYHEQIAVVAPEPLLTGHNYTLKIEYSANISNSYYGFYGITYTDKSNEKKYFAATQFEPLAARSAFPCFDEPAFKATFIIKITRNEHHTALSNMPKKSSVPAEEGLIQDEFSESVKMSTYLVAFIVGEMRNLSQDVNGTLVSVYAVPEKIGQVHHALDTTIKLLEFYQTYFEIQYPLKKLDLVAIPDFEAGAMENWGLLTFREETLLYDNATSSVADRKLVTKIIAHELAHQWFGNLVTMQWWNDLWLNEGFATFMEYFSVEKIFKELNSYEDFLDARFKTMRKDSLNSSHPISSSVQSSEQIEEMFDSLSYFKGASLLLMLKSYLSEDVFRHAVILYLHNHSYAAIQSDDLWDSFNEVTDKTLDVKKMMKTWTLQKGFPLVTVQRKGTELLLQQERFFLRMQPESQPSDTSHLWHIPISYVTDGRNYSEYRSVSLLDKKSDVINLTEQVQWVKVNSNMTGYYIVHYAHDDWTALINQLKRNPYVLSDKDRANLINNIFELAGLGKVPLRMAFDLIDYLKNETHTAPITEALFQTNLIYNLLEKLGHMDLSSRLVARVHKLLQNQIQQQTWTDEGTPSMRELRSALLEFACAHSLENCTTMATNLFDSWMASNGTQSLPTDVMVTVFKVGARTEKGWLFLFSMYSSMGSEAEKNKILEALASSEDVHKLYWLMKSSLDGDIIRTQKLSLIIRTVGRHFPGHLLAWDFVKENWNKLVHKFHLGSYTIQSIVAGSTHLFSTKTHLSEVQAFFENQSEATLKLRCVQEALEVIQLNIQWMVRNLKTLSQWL

| SMILES | activation (at 11 µM (top of the series)) | AC200 | other results |
| --- | --- | --- | --- |
| Cc1ccc(S(=O)(=O)Nc2ccc3c(c2)C(=O)N([C@@H](C)CO)C[C@H](C)[C@H](CN(C)C)OCCCC[C@@H](C)O3)cc1 | 8.57% (inactive) | – | – |
| C[C@@H]1CCCCO[C@H](CN(C)Cc2ccc(C(=O)O)cc2)[C@H](C)CN([C@@H](C)CO)C(=O)c2cc(NC(=O)Nc3ccc(C(F)(F)F)cc3)ccc2O1 | 11.1% (inactive) | – | – |
| O=C(CSc1cn[nH]n1)Nc1cccc(C(=O)O)c1 | 17.4% (inactive) | – | – |
| CCc1cc(=O)oc2c(CN3CCN(C)CC3)c(O)ccc12 | – | 1540 nM | – |
| Cc1noc(C)c1NC(=O)N(C)C[C@@H]1Oc2c(NC(=O)Nc3ccccc3)cccc2C(=O)N([C@H](C)CO)C[C@@H]1C | 12.9% (inactive) | – | – |
| C[C@H](CO)N1C[C@H](C)[C@@H](CN(C)CC2CC2)Oc2c(NC(=O)Nc3ccc(C(F)(F)F)cc3)cccc2C1=O | -14.9% (inactive) | – | – |
| COc1cc2ccc(=O)oc2cc1O | – | 348 nM | – |
| CCCN1[C@@H]2Cn3c(ccc(/C=C/c4ccccc4)c3=O)[C@H]1[C@@H](C(=O)NCc1ccccn1)[C@@H]2CO | – | 992 nM | – |
| Cc1cc(=O)oc2c(CN3CCCCC3)c(O)ccc12 | – | 988 nM | – |
| CC(=O)N1CCN(C(=O)C2(NC(=O)Nc3ccc(C)cc3)CCCCC2)CC1 | 10% (inactive) | – | – |
| CC(=O)Oc1cc2oc(=O)cc(C)c2cc1Cl | – | 507 nM | – |
| C[C@@H]1CCCCO[C@H](CN(C)C)[C@H](C)CN([C@H](C)CO)C(=O)c2cc(NS(=O)(=O)c3ccc(Cl)cc3)ccc2O1 | 8.36% (inactive) | – | – |
| Cc1ccc2nc3c(cc(C(=O)NCc4ccccc4)c(=N)n3CCCn3ccnc3)c(=O)n2c1 | – | 2010 nM | – |
| COc1ccc(S(=O)(=O)Nc2ccc3c(c2)C(=O)N([C@@H](C)CO)C[C@H](C)[C@H](CN(C)C)OCCCC[C@@H](C)O3)cc1 | -2.35% (inactive) | – | – |
| CC1CN(Cc2cc(=O)oc3cc(O)c(Cl)cc23)CC(C)O1 (stereo not drawn) | – | 1350 nM | – |
| CCC(=O)N(C)C[C@@H]1Oc2ncc(C#Cc3ccncc3)cc2C(=O)N([C@@H](C)CO)C[C@@H]1C | 2.82% (inactive) | – | – |
| C[C@@H]1CCCCO[C@@H](CN(C)CC2CCCCC2)[C@H](C)CN([C@@H](C)CO)C(=O)c2cc(NC(=O)Nc3ccccc3)ccc2O1 | -13.9% (inactive) | – | – |
| Cc1c(-c2ccccc2)c(=O)oc2cc(O)ccc12 | – | 1240 nM | – |
| N#Cc1c(N2CCNCC2)nc(-c2ccco2)c2c1CCCC2 | 56.4% (inactive) | – | – |
| COc1ccc(CN(C)C[C@H]2OCCCC[C@@H](C)Oc3ccc(NS(=O)(=O)c4cccs4)cc3C(=O)N([C@H](C)CO)C[C@H]2C)cc1 | 10% (inactive) | – | – |
| CCN(CC)Cc1c(O)ccc2cc(-c3nc4ccccc4n3C)c(=O)oc12 | – | 229 nM | – |
| COCC(=O)N1[C@@H]2Cn3c(ccc(/C=C/c4ccccc4)c3=O)[C@H]1[C@@H](C(=O)N1CCOCC1)[C@@H]2CO | – | 757 nM | – |
| O=c1oc2cc(O)ccc2cc1S(=O)(=O)c1ccccc1 | – | 351 nM | – |
| CCCN1[C@@H]2c3ccc(/C=C/c4ccccc4)c(=O)n3C[C@H]1[C@H](CO)[C@H]2C(=O)NCc1ccccn1 | – | 1000 nM | – |
| Cc1noc(C)c1S(=O)(=O)N(C)C[C@@H]1OCCCC[C@@H](C)Oc2ccc(NS(=O)(=O)c3cccs3)cc2C(=O)N([C@@H](C)CO)C[C@@H]1C | – | – | activation (at 10 µM (top of the series)): -12.6% (inactive) |

| SMILES | activation (at 11 µM (top of the series)) | AC200 | other results |
| --- | --- | --- | --- |
| C[C@@H]1CCCCO[C@@H](CN(C)C)[C@@H](C)CN([C@@H](C)CO)C(=O)c2cc(NS(=O)(=O)c3ccc(F)cc3)ccc2O1 | -0.129% (inactive) | – | – |
| O=C(Nc1ccc(C(F)(F)F)cc1)N1[C@@H]2CNC[C@H]1C2c1ccc(-c2ccncc2)cc1 (stereo partly drawn) | 4.27% (inactive) | – | – |
| CCC(=O)N1[C@@H]2c3ccc(/C=C/c4ccccc4)c(=O)n3C[C@H]1[C@H](CO)[C@H]2C(=O)N(C)C | – | 872 nM | – |
| Cc1noc(C)c1S(=O)(=O)Nc1ccc2c(c1)C(=O)N([C@H](C)CO)C[C@H](C)[C@H](CN(C)Cc1ccc3c(c1)OCO3)OCCCC[C@@H](C)O2 | – | – | activation (at 10 µM (top of the series)): -18.4% (inactive) |
| CCCNC(=O)C[C@H]1CC[C@@H]2[C@H](COC[C@H](O)CN2C(=O)Nc2cccc(Cl)c2)O1 | 24.9% (inactive) | – | – |
| C[C@H](CO)N1C[C@H](C)[C@H](CN(C)CC2CCCCC2)Oc2c(NC(=O)Nc3ccc(C(F)(F)F)cc3)cccc2C1=O | 12.3% (inactive) | – | – |
| C[C@@H]1CCCCO[C@@H](CN(C)CC2CC2)[C@@H](C)CN([C@H](C)CO)C(=O)c2cc(NS(=O)(=O)c3ccc(Cl)cc3)ccc2O1 | -6.39% (inactive) | – | – |
| CN1CCCC1CCNc1ccc2c(=O)c3ccccc3oc2c1 (stereo not drawn) | – | 555 nM | – |
| O=c1ccc2cc(O)c(O)cc2o1 | – | 2120 nM | – |
| COc1ccc(NC(=O)Nc2ccc3c(c2)C(=O)N([C@H](C)CO)C[C@@H](C)[C@@H](CN(C)Cc2ccc(C(=O)O)cc2)OCCCC[C@@H](C)O3)cc1 | -5.71% (inactive) | – | – |
| Cc1c(O)ccc2c(CN3CCN(Cc4ccccc4)CC3)cc(=O)oc12 | – | > 2600 nM (inactive) | – |
| C/C(=N\NC(=O)CC#N)c1cc2ccc(O)cc2oc1=O | – | 1080 nM | – |
| COc1cccc(CN(C)Cc2cc(=O)oc3cc(O)c(Cl)cc23)c1 | – | 793 nM | – |
| C[C@H]1CN([C@@H](C)CO)C(=O)c2cccc(NC(=O)Nc3ccc(C(F)(F)F)cc3)c2O[C@@H]1CN(C)CC1CC1 | -18.4% (inactive) | – | – |
| COc1ccc(C2=NN(c3ccc(C(=O)O)cc3)C(c3ccc(OC)c(OC)c3)C2)cc1 (stereo not drawn) | – | 824 nM | – |
| COc1ccc(S(=O)(=O)N(C)C[C@@H]2Oc3ncccc3C(=O)N([C@H](C)CO)C[C@@H]2C)cc1 | – | – | activation (at 5.6 µM (top of the series)): 9.5% (inactive) |
| C[C@@H]1CCCCO[C@@H](CN(C)Cc2ccc3c(c2)OCO3)[C@@H](C)CN([C@H](C)CO)C(=O)c2cc(NS(=O)(=O)c3cccs3)ccc2O1 | -8.52% (inactive) | – | – |
| CCCN(C)C[C@@H]1OCCCC[C@@H](C)Oc2ccc(NS(=O)(=O)c3ccc(OC)cc3)cc2C(=O)N([C@H](C)CO)C[C@@H]1C | – | – | activation (at 8 µM (top of the series)): -24.7% (inactive) |
| CCN(CCCl)c1cc(CN(C)C)cc(NC(=O)c2ccc(C(=O)Nc3cc(CN(C)C)cc(N(CC)CCCl)c3)cc2)c1 | -21% (inactive) | – | – |
| CCn1cc(CN2CCCC(C(=O)Nc3ccc(-c4nc5ccccc5[nH]4)cc3)C2)c(C)n1 (stereo not drawn) | -5.33% (inactive) | – | – |
| COc1cc2cc(C(=O)N3CCN(Cc4ccc5c(c4)OCO5)CC3)c(=O)oc2cc1OC | – | – | activation (at 2.6 µM (top of the series)): 150% (inactive) |
| CC(=O)N1[C@@H]2Cn3c(ccc(/C=C/c4ccccc4)c3=O)[C@H]1[C@@H](C(=O)NCC1CC1)[C@@H]2CO | – | 1290 nM | – |
| CCCN(C)C[C@@H]1OCCCC[C@@H](C)Oc2ccc(NS(=O)(=O)c3ccc(F)cc3)cc2C(=O)N([C@H](C)CO)C[C@@H]1C | -17.1% (inactive) | – | – |
| Cc1cc(=O)oc2cc(OCC(=O)N3CCN(C(C)c4ccccc4)CC3)c(Cl)cc12 (stereo not drawn) | – | 1980 nM | – |
| Cc1noc(C)c1NC(=O)Nc1ccc2c(c1)C(=O)N([C@H](C)CO)C[C@@H](C)[C@@H](CN(C)Cc1ccc(C(F)(F)F)cc1)OCCCC[C@@H](C)O2 | -4.93% (inactive) | – | – |

| SMILES | activation (at 11 µM (top of the series)) | AC200 | other results |
| --- | --- | --- | --- |
| C[C@@H]1CCCCO[C@H](CN(C)Cc2ccc(C(=O)O)cc2)[C@@H](C)CN([C@H](C)CO)C(=O)c2cc(NC(=O)Nc3ccc(C(F)(F)F)cc3)ccc2O1 | 9.92% (inactive) | – | – |
| COc1ccc(CN(C)C[C@@H]2OCCCC[C@@H](C)Oc3ccc(NS(=O)(=O)c4cccs4)cc3C(=O)N([C@H](C)CO)C[C@H]2C)cc1 | 3.48% (inactive) | – | – |
| CCc1c(C)c2cc(Cl)c(O)c(CN(CC)CC)c2oc1=O | – | 546 nM | – |
| CCN(CC)Cc1c(O)c(Cl)cc2c(C)cc(=O)oc12 | – | 620 nM | – |
| Cc1ccccc1-c1ccc2c(c1)O[C@@H](CN(C)Cc1ccc(C(=O)O)cc1)[C@@H](C)CN([C@@H](C)CO)S2(=O)=O | 4.16% (inactive) | – | – |
| COC(=O)[C@H]1[C@H](CO)[C@H]2Cn3c(ccc(-c4ccncc4)c3=O)[C@H]2N1Cc1ccccc1F | 19% (inactive) | – | – |
| CCc1c(C)c2cc(Cl)c(O)c(CN(C)C)c2oc1=O | – | 471 nM | – |
| CC(=O)N1[C@@H]2c3ccc(/C=C/c4ccccc4)c(=O)n3C[C@H]1[C@H](CO)[C@H]2C(=O)N1CCOCC1 | – | 1100 nM | – |
| Cc1c(O)ccc2cc(S(=O)(=O)c3ccccc3)c(=O)oc12 | – | 439 nM | – |
| CNC[C@H]1OCCCC[C@@H](C)Oc2ccc(NS(=O)(=O)c3ccc(C)cc3)cc2C(=O)N([C@@H](C)CO)C[C@H]1C | -8.83% (inactive) | – | – |
| COc1ccc(CN(C)C[C@@H]2OCCCC[C@@H](C)Oc3ccc(NS(=O)(=O)c4cccs4)cc3C(=O)N([C@@H](C)CO)C[C@H]2C)cc1 | -1.66% (inactive) | – | – |
| Cc1c(C)c2ccc(O)c(CN3CCCC3)c2oc1=O | – | 1040 nM | – |
| CCN1CCN(Cc2c(O)ccc3c(C)cc(=O)oc23)CC1 | – | 1540 nM | – |
| CCNC(=O)[C@@H]1[C@@H](CO)[C@@H]2Cn3c(ccc(/C=C/c4ccccc4)c3=O)[C@H]1N2C(=O)C1CCCC1 | – | 824 nM | – |
| O=c1ccc2cc(O[C@@H]3O[C@H](CO)[C@@H](O)[C@H](O)[C@H]3O)c(O)cc2o1 | – | 307 nM | – |
| Cc1noc(C)c1NC(=O)N(C)C[C@@H]1Oc2c(NC(=O)Nc3ccc(F)cc3)cccc2C(=O)N([C@H](C)CO)C[C@@H]1C | 36.7% (inactive) | – | – |
| Cc1c(CC(=O)N2CCN(C(=O)C3COc4ccccc4O3)CC2)c(=O)oc2cc(O)c(Cl)cc12 (stereo not drawn) | – | 661 nM | – |
| COc1ccc(CN(C)C[C@@H]2OCCCC[C@@H](C)Oc3ccc(NS(=O)(=O)c4c(C)noc4C)cc3C(=O)N([C@@H](C)CO)C[C@@H]2C)cc1 | -18.2% (inactive) | – | – |
| Cc1ccc(S(=O)(=O)c2cc3ccc(O)cc3oc2=O)cc1C | – | 362 nM | – |
| C[C@@H]1CCCCO[C@@H](CN(C)Cc2ccccc2)[C@H](C)CN([C@H](C)CO)C(=O)c2cc(NS(=O)(=O)c3cccs3)ccc2O1 | -6.87% (inactive) | – | – |
| O=C(C[C@H]1CC[C@H]2[C@@H](COC[C@@H](O)CN2C(=O)Nc2cccc(Cl)c2)O1)N1CCCCC1 | 16.9% (inactive) | – | – |
| CCCc1cc(=O)oc2c(CN(CC)CC)c(O)c(Cl)cc12 | – | 638 nM | – |
| CCCN(C)C[C@@H]1OCCCC[C@@H](C)Oc2ccc(NS(=O)(=O)c3cccs3)cc2C(=O)N([C@H](C)CO)C[C@@H]1C | -6.14% (inactive) | – | – |
